# Read-outs that look alike come from different tables or passages of the source.
# Tests used:
# [1] = target: T1, human glucagon receptor (Homo sapiens, UniProt P47871); test: Glucagon Binding Assay (II); settings: membranes of BHK cells transfected with human glucagon receptor, 125I-glucagon, SPA; read-out: Glu Bd Assay (II) IC50
# T1 construct: expressed in transfected cells; host or cells: BHK (baby hamster kidney) cells, membrane preparation
# Method: Glucagon Binding Assay (II)
# BHK (baby hamster kidney cell line) cells are transfected with the human glucagon receptor and a membrane preparation of the cells is prepared.
# All steps in the membrane preparation are kept on ice or performed at 4° C. BHK cells are harvested and centrifuged. The pellet is resuspended in homogenisation buffer (25 mM HEPES, pH=7.4, 2.5 mM CaCl2, 1.0 mM MgCl2, 250 mg/L bacitracin, 0.1 mM Pefabloc), homogenised 2×10 sec using Polytron 10-35 homogenizer (Kinematica) and added the same amount of homogenisation buffer as used for resuspension. After centrifugation (15 min at 2000×g) the supernatant is transferred to cold centrifuge tubes and centrifuged for 45 min at 40.000×g. The pellet is resuspended in homogenisation buffer, homogenised 2×10 sec (Polytron) and additional homogenisation buffer is added. The suspension is centrifuged for 45 min at 40.000×g and the pellet is resuspended in resuspension buffer (25 mM HEPES, pH=7.4, 2.5 mM CaCl2, 1.0 mM MgCl2) and homogenised 2×10 sec. (Polytron). […] Stabilisation buffer (25 mM HEPES, pH=7.4, 2.5 mM CaCl2, 1.0 mM MgCl2, 1% bovine serum albumin, 500 mg/L bacitracin, 2.5 M sucrose) is added and the membrane preparation is stored at −80° C.
# (§1) The glucagon binding assay is carried out in opti plates (Polystyrene Microplates, Packard). 50 μL assay buffer (25 mM HEPES, pH=7.5, 2.5 mM CaCl2, 1.0 mM MgCl2, 0.003% Tween-20, 0.005% bacitracin, 0.05% sodium azide) and 5 μL glucagon or test compound (in DMSO) are added to each well. […] Finally 50 μL WGA beads containing 1 mg beads are transferred to the well. The opti plates are incubated for 4 hours on a shaker and then settled for 8-48 hours. The opti plates are counted in a Topcounter. Non-specific binding is determined with 500 nM of glucagon.
# [2] = target: T2, human GIP receptor (Homo sapiens, UniProt P48546); test: GIP Binding Assay
# T2 construct: expressed in transfected cells; host or cells: BHK (baby hamster kidney) cells, membrane preparation
# T2 sequence (P48546 22-466): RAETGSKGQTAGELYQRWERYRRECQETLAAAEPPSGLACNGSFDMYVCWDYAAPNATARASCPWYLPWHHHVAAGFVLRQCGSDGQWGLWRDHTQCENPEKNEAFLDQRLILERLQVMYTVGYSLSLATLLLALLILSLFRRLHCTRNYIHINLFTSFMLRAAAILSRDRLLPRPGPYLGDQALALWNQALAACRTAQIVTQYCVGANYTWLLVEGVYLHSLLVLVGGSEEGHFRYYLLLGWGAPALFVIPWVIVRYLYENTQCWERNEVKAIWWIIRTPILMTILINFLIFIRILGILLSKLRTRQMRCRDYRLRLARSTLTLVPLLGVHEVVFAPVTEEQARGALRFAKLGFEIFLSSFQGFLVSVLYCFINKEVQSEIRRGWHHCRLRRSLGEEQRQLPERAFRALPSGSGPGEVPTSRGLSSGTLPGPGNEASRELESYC
# Method: BHK (baby hamster kidney cell line) cells are transfected with the human GIP receptor and a membrane preparation of the cells is prepared.
# All steps in the membrane preparation are kept on ice or performed at 4° C. BHK cells are harvested and centrifuged. The pellet is resuspended in homogenisation buffer (25 mM) HEPES, pH=7.4, 2.5 mM CaCl2, 1.0 mM MgCl2, 250 mg/L bacitracin, 0.1 mM Pefabloc), homogenised 2×10 sec using Polytron 10-35 homogenizer (Kinematica) and added the same amount of homogenisation buffer as used for resuspension. After centrifugation (15 min at 2000×g) the supernatant is transferred to cold centrifuge tubes and centrifuged for 45 min at 40.000×g. The pellet is resuspended in homogenisation buffer, homogenised 2×10 sec (Polytron) and additional homogenisation buffer is added. The suspension is centrifuged for 45 min at 40.000×g and the pellet is resuspended in resuspension buffer (25 mM HEPES, pH=7.4, 2.5 mM CaCl2, 1.0 mM MgCl2) and homogenised 2×10 sec. (Polytron). […] Stabilisation buffer (25 mM HEPES, pH=7.4, 2.5 mM CaCl2, 1.0 mM MgCl2, 1% bovine serum albumin, 500 mg/L bacitracin, 2.5 M sucrose) is added and the membrane preparation is stored at −80° C.
# as §1, with “The GIP” for “The glucagon”, “μL GIP” for “μL glucagon”, “for 3.5” for “for 4”, “a Top-counter.” for “a Topcounter.”, “of GIP.” for “of glucagon.”
# [3] = membranes of BHK cells transfected with human GIP receptor, 125I-GIP, SPA, read-out: GIP Bd Assay IC50
# T1 sequence (P47871 26-477): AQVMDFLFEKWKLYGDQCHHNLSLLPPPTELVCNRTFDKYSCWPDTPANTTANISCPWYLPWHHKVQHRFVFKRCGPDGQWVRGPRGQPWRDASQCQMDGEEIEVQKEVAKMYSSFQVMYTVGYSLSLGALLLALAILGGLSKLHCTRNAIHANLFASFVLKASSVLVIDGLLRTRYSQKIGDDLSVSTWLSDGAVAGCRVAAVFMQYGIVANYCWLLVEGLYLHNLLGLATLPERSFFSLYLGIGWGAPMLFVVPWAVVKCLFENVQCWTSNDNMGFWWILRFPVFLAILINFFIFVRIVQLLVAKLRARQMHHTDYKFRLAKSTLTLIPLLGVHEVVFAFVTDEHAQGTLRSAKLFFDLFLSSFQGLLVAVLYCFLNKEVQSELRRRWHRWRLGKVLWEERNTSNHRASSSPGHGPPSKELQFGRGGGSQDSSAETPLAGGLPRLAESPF
Structure (SMILES),IC50 [1] [nM],"IC50 [2, 3] [nM]",IC50 [2] [nM]
"CC(NC(=O)N(Cc1ccc(C(=O)NC[C@@H](O)C(=O)O)cc1)c1ccc(C2CCCCC2)cc1)c1ccc(Br)cc1 (mixture of isomers) [Example 54, 3-{4-[3-[1(RS)-(4-Bromophenyl)ethyl]-1-(4-cyclohexylphenyl)ureidomethyl]benzoylamino}-2(R)-hydroxypropionic acid]",390,> 3000,–
"CC(C)(C)c1ccc(N(Cc2ccc(C(=O)NCC(O)C(=O)O)cc2)C(=O)Nc2ccc(OC(F)(F)F)cc2)cc1 (racemic) [Example 16, (RS)-3-{4-[1-(4-tert-Butylphenyl)-3-(4-trifluoromethoxyphenyl)ureidomethyl]benzoylamino}-2-hydroxypropionic acid]",61,205,–
"O=C(NCC(O)C(=O)O)c1ccc(CN(C(=O)Nc2cc(Cl)cc(Cl)c2)c2ccc(C3=CCCCC3)cc2)cc1 (racemic) [Example 17, (RS)-3-{4-[1-(4-Cyclohex-1-enylphenyl)-3-(3,5-dichlorophenyl)ureidomethyl]benzoylamino}-2-hydroxypropionic acid]",22,–,448
"O=C(NCC(F)C(=O)O)c1ccc(CN(C(=O)Nc2cc(Cl)cc(Cl)c2)c2ccc(C3=CCCCC3)cc2)cc1 (racemic) [Example 23, (RS)-3-{4-[1-(4-Cyclohex-1-enylphenyl)3-(3,5-dichlorophenyl)ureidomethyl]benzoylamino}-2-fluoropropionic acid]",40,516,–
"COc1cc(NC(=O)N(Cc2ccc(C(=O)NC[C@@H](O)C(=O)O)cc2)c2ccc(C3CCCCC3)cc2)cc(C(F)(F)F)c1 [Example 1, (R)-3-{4-[1-(4-Cyclohexylphenyl)-3-(3methoxy-5-trifluoromethylphenyl)ureidomethyl]benzoylamino}-2-hydroxypropionic acid]",29,701,–
"O=C(NC[C@@H](O)C(=O)O)c1ccc(CN(C(=O)Nc2cc(C(F)(F)F)cc(C(F)(F)F)c2)c2ccc(C3CCCCC3)cc2)cc1 [Example 2, (R)-3-{4-[3-(3,5-Bis(trifluoromethyl)phenyl)-1-(4-cyclohexylphenyl)ureidomethyl]benzoylamino}-2-hydroxypropionic acid]",12,269,–
"O=C(NC[C@@H](O)C(=O)O)c1ccc(CN(C(=O)Nc2cccc(Br)c2)c2ccc(C3CCCCC3)cc2)cc1 [Example 3, (R)-3-{4-[3-(3-Bromophenyl)-1-(4-cyclohexylphenyl)ureidomethyl]benzoylamino}-2-hydroxypropionic acid]",18,653,–
"O=C(NC[C@@H](O)C(=O)O)c1ccc(CN(C(=O)Nc2ccc(OC(F)(F)F)cc2)c2ccc(C3CCCCC3)cc2)cc1 [Example 4, (R)-3-{4-[1-(4-Cyclohexylphenyl)-3-(4-trifluoromethoxyphenyl)ureidomethyl]benzoylamino}-2-hydroxypropionic acid]",23,124,–
"O=C(NC[C@@H](O)C(=O)O)c1ccc(CN(C(=O)Nc2cccc(C(F)(F)F)c2)c2ccc(C3CCCCC3)cc2)cc1 [Example 5, (R)-3-{4-[1-(4-Cyclohexylphenyl)-3-(3-trifluoromethylphenyl)ureidomethyl]benzoylamino}-2-hydroxypropionic acid]",26,519,–
"O=C(NC[C@@H](O)C(=O)O)c1ccc(CN(C(=O)Nc2cc(F)cc(C(F)(F)F)c2)c2ccc(C3CCCCC3)cc2)cc1 [Example 6, (R)-3-{4-[1-(4-Cyclohexylphenyl)-3-(3-fluoro-5-trifluoromethylphenyl)ureidomethyl]benzoylamino}-2-hydroxypropionic acid]",10,294,–
"N#Cc1cc(NC(=O)N(Cc2ccc(C(=O)NC[C@@H](O)C(=O)O)cc2)c2ccc(C3=CCCCC3)cc2)cc(C(F)(F)F)c1 [Example 7, (R)-3-{4-[3-(3-Cyano-5-trifluoromethylphenyl)-1-(4-cyclohex-1-enylphenyl)ureidomethyl]benzoylamino}-2-hydroxypropionic acid]",26,292,–
"N#Cc1cc(NC(=O)N(Cc2ccc(C(=O)NC[C@@H](O)C(=O)O)cc2)c2ccc(C3CCCCC3)cc2)cc(C(F)(F)F)c1 [Example 8, (R)-3-{4-[3-(3-Cyano-5-trifluoromethylphenyl)-1-(4-cyclohexylphenyl)ureidomethyl]benzoylamino}-2-hydroxypropionic acid]",14,316,–
"O=C(NC[C@@H](O)C(=O)O)c1ccc(CN(C(=O)Nc2cc(Br)cc(C(F)(F)F)c2)c2ccc(C3=CCCCC3)cc2)cc1 [Example 9, (R)-3-{4-[3-(3-Bromo-5-trifluoromethylphenyl)-1-(4-cyclohex-1-enylphenyl)ureidomethyl]benzoylamino}-2-hydroxypropionic acid]",11,285,–
"COc1cc(NC(=O)N(Cc2ccc(C(=O)NC[C@@H](O)C(=O)O)cc2)c2ccc(C3=CCCCC3)cc2)cc(C(F)(F)F)c1 [Example 10, (R)-3-{4-[1-(4-Cyclohex-1-enylphenyl)-3-(3-methoxy-5-trifluoromethylphenyl)ureidomethyl]benzoylamino}-2-hydroxypropionic acid]",19,294,–
"O=C(NC[C@@H](O)C(=O)O)c1ccc(CN(C(=O)Nc2cccc(Br)c2)c2ccc(C3=CCCCC3)cc2)cc1 [Example 11, (R)-3-{4-[3-(3-Bromophenyl)-1-(4-cyclohex-1-enylphenyl)ureidomethyl]benzoylamino}-2-hydroxypropionic acid]",41,914,–
"O=C(NC[C@@H](O)C(=O)O)c1ccc(CN(C(=O)Nc2cc(Br)cc(C(F)(F)F)c2)c2ccc(C3CCCCC3)cc2)cc1 [Example 12, (R)-3-{4-[3-(3-Bromo-5-trifluoromethylphenyl)-1-(4-cyclohexylphenyl)ureidomethyl]benzoylamino}-2-hydroxypropionic acid]",10,204,–
"Cc1cc(NC(=O)N(Cc2ccc(C(=O)NC[C@@H](O)C(=O)O)cc2)[C@H]2CC[C@H](C(C)(C)C)CC2)cc(C(F)(F)F)c1 [Example 15, Trans-(R)-3-{4-[3-(3-methyl-5-trifluoromethylphenyl)-1-(4-tert-butylcyclohexyl)ureidomethyl]benzoylamino}-2-hydroxypropionic acid]",35,395,–
"O=C(NC[C@H](O)C(=O)O)c1ccc(CN(C(=O)Nc2cc(Cl)cc(Cl)c2)c2ccc(C3=CCCCC3)cc2)cc1 [Example 18, (S)-3-{4-[1-(4-Cyclohex-1-enylphenyl)-3-(3,5-dichlorophenyl)ureidomethyl]benzoylamino}-2-hydroxypropionic acid]",177,> 1500,–

# Reference: US6953812B2, “Glucagon antagonists/inverse agonists” (Novo Nordisk, Inc., priority 2000, dated 2005)
